Several values for one entry are separate records, joined by “and”; a condition that tells them apart may be missing. Equal entries are not always repeated.
Assays:
[1] = tested on: totally blind patients with Non-24; settings: cited from earlier work
[2] = tested on: individuals diagnosed with DSWPD and having at least one copy of the rs184039278 CRY1 allele; experiment: Sleep parameters after 20 mg tasimelteon before bedtime, by rs184039278 CRY1 genotype; type: in vivo, human
Experimental: In a study of genetic variations associated with sleep-wake patterns, Applicant found a significant association between the rs184039278 CRY1 allele and efficacy of treatment with tasimelteon. […] Both groups were treated with 20 mg of tasimelteon before bed.

[3] = individual DSWPD patients, rs184039278 CRY1 G/T, 20 mg tasimelteon prior to bedtime

Question: Which results are given for `CCC(=O)NC[C@@H]1C[C@H]1c1cccc2c1CCO2` [tasimelteon, Tasimelteon]?
Answer: efficacy on circadian timing system and sleep [1]: phase advance the circadian timing system (CTS) and to improve nighttime sleep and decrease daytime sleep; total sleep time (TST), WT versus MT individuals (FIG. 1) ([2]; WT (no rs184039278 CRY1 allele) compared to MT (at least one copy), both 20 mg tasimelteon before bed): both lower and more variable than for MT individuals; Total Sleep Time In First Two-Thirds Of Night [2, 3]: 308 min and 293.5 min; percentage of total sleep time (sleep efficiency) [2, 3]: 96 and 91; sleep parameters (LPS, sleep efficiency, REM sleep duration, TST, WASO) ([2]; individuals having at least one copy of the rs184039278 CRY1 allele, tasimelteon before bedtime): improvements in one or more sleep parameters
